From US9239331B2, “Method for predicting the response to HER2-directed therapy” (Ventana Medical Systems, Inc., priority 2002, dated 2016) come the findings set out here.

The experiment concerns breast cancer patients. As to the kind of experiment: Patient response in breast cancer tissue microarray cohort: chemotherapy together with HERCEPTIN®, response from case histories at last follow-up. It counts as in vivo, human. The following applies: treatment following surgery (followed by Herceptin ®). As to the method: Immunohistochemistry for detecting and measuring predictive biomarker expression, activation or both was performed as follows. HER2/neu, EGFR, HER3, IGFR, TGF-α, Heregulin (NDF), p-ERK, p-AKT, and p-S6 ribosomal protein or phosphorylation levels were quantified using alkaline phosphatase or peroxidase techniques and microscope-based image analysis of immunohistochemically stained slides (as described in Bacus et al., 1997, Analyt. Quant. Cytol. Histol. 19: 316-328). Quantification was by means of a CAS 200 image analyzer, as previously described (Bacus & Ruby, 1993, Pathol Annu, 28: 179-204). For the purpose of the analysis, tumors were classified as negative or positive for each antibody based upon the level of staining. Statistical analysis was performed using Systat to quantify frequencies and calculate Pearson Chi-squared tests of significance for interactions between variables. In all cases, the p value refers to the significance of the deviation of the distribution of samples from what would be expected based upon the overall population distribution. Comparisons were performed only on samples for which all relevant data were available. […] All patients had received post-surgical radiotherapy. The tissue samples in the array were taken before treatment. HER2/neu expression had been determined by using the […] system (DAKO, Carpinteria, Calif.) on the original biopsies for all patients. Patient response was based upon the case histories at last follow-up as decided by an independent pathologist provided by Clinomics.

For the compound `CC(=O)O[C@H]1C(=O)[C@@]2(C)[C@H]([C@H](OC(=O)c3ccccc3)[C@]3(O)C[C@H](OC(=O)[C@H](O)[C@@H](NC(=O)c4ccccc4)c4ccccc4)C(C)=C1C3(C)C)[C@]1(OC(C)=O)CO[C@@H]1C[C@@H]2O` [Paclitaxel], the “disease-free or stable disease” value worked out at 100% and the relapse is on record as 0%.
In the case of `COc1cccc2c1C(=O)c1c(O)c3c(c(O)c1C2=O)C[C@@](O)(C(=O)CO)C[C@@H]3O[C@H]1C[C@H](N)[C@H](O)[C@H](C)O1` [Doxorubicin], the “disease-free or stable disease” value is given as 2% and the relapse was determined as 98%.
